Experimental data: US12616751B2, “Photosensitizing antibody-fluorophore conjugates” (The USA, as represented by the Secretary, Department of …, priority 2010, dated 2026)

System: A431 cells
Experiment: Fluorescence microscopy of Pan-IR700 in A431 cells
Format: cell-based
Conditions: after 24 h incubation
Procedure: EGFR-expressing A431 cells were used as the target HER1+ cells. […] Cells were grown in RPMI 1640 supplemented with 10% fetal bovine serum and 1% penicillin/streptomycin in tissue culture flasks in a humidified incubator at 37° C. in an atmosphere of 95% air and 5% carbon dioxide. A431 or Balb/3T3/DsRed cells were seeded on cover glass-bottomed dishes and incubated for 24 hours. Pan-IR700 was added to the culture medium at 10 μg/mL and incubated either for 1 hour on ice or 6 hours at 37° C., then cells were washed with PBS. Culture medium was replaced with phenol red-free medium after washing with phosphate buffered saline (PBS).
Fluorescence microscopy was performed as described in Example 2 to detect the antigen-specific localization of IR700.
Reagents. […] The protein concentrations were determined with Coomassie Plus protein assay kit (Pierce Biotechnology) by measuring light absorption at 595 nm (8453 Value System; Agilent Technologies). […] Quenching efficiency (QE) for a particular conjugation is defined as the fluorescence intensity with SDS divided by fluorescence intensity without SDS. […] Fluorescence lifetime measurements. […] Lifetime values and lifetime mapping were calculated to fit fluorescence temporal point-spread functions (TPSFs) as single-exponential models with the Fit TPSF tool. […] Power densities were measured with an optical power meter (PM 100, Thorlabs). […]

With “Pan-IR700: Panitumumab (anti-human EGFR IgG2 MAb) conjugated to IR700; about 3 to 4 IR700 per antibody” the “cell damage following exposure to NIR light” value was “immediate damage was induced in the cell membranes and lysosomes”.
